Common to all, as to assay type: physicochemical
The nature of data set [1]: Color longevity at varying active chlorine and dye level, pH 5.8. The conditions noted are these: for Initial Color/Appearance / Time needed for solution to become colorless: 1 ppm dye.
Data set [2] can be described thus: Dye and chlorine stability test, effect of pH. As to conditions: 1 ppm dye; for Initial Color/Appearance: additional formulations; for Initial Color/Appearance / Time needed for solution to become colorless: 100 ppm active chlorine; for Color/Appearance: initial 100 ppm chlorine.
Data set [3] is described as follows: Chlorine stability of acid sanitizer solutions. The conditions noted are these: chlorine 12 ppm, pH 5.13.

Turning to `COc1cc(S(=O)(=O)[O-])c(C)cc1N=Nc1c(O)ccc2cc(S(=O)(=O)[O-])ccc12.[Na+].[Na+]` [FD&C Red #40], the “Initial Color/Appearance” value in data set [1] (10 ppm available chlorine) is recorded as “visible”; in data set [1] (30 ppm available chlorine), “visible”; in data set [1] (50 ppm available chlorine) it was “visible”; in data set [1] (80 ppm available chlorine), “visible”; in data set [1] (100 ppm available chlorine) it was “visible”; in data set [2] (pH buffered at 2), “colorless”. Also, the “Initial Color/Appearance” value in data set [2] (pH buffered at 4) is given as “visible color”; in data set [2] (pH buffered at 5.4), “visible color”; in data set [2] (pH buffered at 5.8), “visible color”; in data set [2] (pH buffered at 6), “visible color”; in data set [2] (pH buffered at 8), “visible color”; in data set [2] (pH buffered at 10), “colorless”. In addition, the “Initial Color/Appearance” value in data set [2] (pH buffered at 12) was “colorless”. Moreover, the “Time needed for solution to become colorless” value (shortened to “Time needed for solution”) in data set [1] (10 ppm available chlorine) was “more than 6.0 hours”; in data set [1] (30 ppm available chlorine) it was 6.0 h; in data set [1] (50 ppm available chlorine), 5.0 h; in data set [1] (80 ppm available chlorine), 4.5 h; in data set [1] (100 ppm available chlorine) it was 3.0 h; in data set [2] (pH buffered at 2), “none”. Further, the “Time needed for solution” value in data set [2] (pH buffered at 4) was 2.5 h; in data set [2] (pH buffered at 5.4), 15 h; in data set [2] (pH buffered at 5.8), 5.0 h; in data set [2] (pH buffered at 6), 4.0 h; in data set [2] (pH buffered at 8), 0.25 h; in data set [2] (pH buffered at 10) it was “none”. Also, the “Time needed for solution” value in data set [2] (pH buffered at 12) is “none”. Besides, in data set [1] (dye level 0.1 to 0.4 wt-%, 100 ppm available chlorine), the “relationship between dye concentration and color longevity” value is “linear relationship between dye concentration and color longevity”. Further, the Color/Appearance result is “color gone immediately” in data set [2] (pH buffered at 2, 0.0 hours); “no color” in data set [2] (pH buffered at 2, 175 hours); “color gone” in data set [2] (pH buffered at 4, 2.5 hours); “no color” in data set [2] (pH buffered at 4, 175 hours); “slightly visible” in data set [2] (pH buffered at 6, 5.0 hours); “no color” in data set [2] (pH buffered at 6, 175 hours). In addition, the Color/Appearance result in data set [2] (pH buffered at 8, 0.25 hours) is recorded as “color gone”; in data set [2] (pH buffered at 8, 175 hours), “no color”; in data set [2] (pH buffered at 10, 0.0 hours), “color gone immediately”; in data set [2] (pH buffered at 10, 175 hours) it was “no color”; in data set [2] (pH buffered at 12, 0.0 hours), “color gone immediately”; in data set [2] (pH buffered at 12, 175 hours) it was “no color”.

For the compound “Chlorinated trisodium phosphate [Chlorinated TSP]”, the “Chlorine (ppm) Conc. 0 Time” value in data set [3] (0 time) is on record as 12.7 ppm. For the same compound, the “Chlorine (ppm) Conc. 4 Hours” value in data set [3] (4 hours) was 9.93 ppm. Moreover, the “Chlorine (ppm) Conc. 24 Hours” value in data set [3] (24 hours) is on record as 5.67 ppm.

For the origin of these results see patent US20030059483A1, “Color stable hypochlorous sanitizer and methods” (priority 1999, published 2003).
